Laboratory results taken from ChEMBL document CHEMBL3091426, “Synthesis and antitumor-evaluation of 1,3-selenazole-containing 1,3,4-thiadiazole derivatives” (Bioorg Med Chem Lett, 2013).

Tests used:
L1210 = assay: Antiproliferative activity against mouse L1210 cells by CCK-8 assay; assay type: functional, cell-based
MCF7 = assay: Antiproliferative activity against human MCF7 cells by CCK-8 assay; assay type: functional, cell-based

Row | SMILES | IC50 (L1210) | IC50 (MCF7)
1 | C(=N\c1nnc(SCc2c[se]c(-c3ccccc3)n2)s1)/c1ccccc1 | 46.5 µM | 25.6 µM
2 | Fc1ccc(/C=N/c2nnc(SCc3c[se]c(-c4ccccc4)n3)s2)cc1 | 56.9 µM | 10.2 µM
3 | Clc1ccc(/C=N/c2nnc(SCc3c[se]c(-c4ccccc4)n3)s2)cc1 | 50 µM | 4.02 µM
4 | Brc1ccc(/C=N/c2nnc(SCc3c[se]c(-c4ccccc4)n3)s2)cc1 | 46.5 µM | 14.8 µM
5 | Oc1ccccc1/C=N/c1nnc(SCc2c[se]c(-c3ccccc3)n2)s1 | 38.7 µM | 15.2 µM
6 | CN(C)c1ccc(/C=N/c2nnc(SCc3c[se]c(-c4ccccc4)n3)s2)cc1 | > 100 µM | 80.3 µM
7 | O=[N+]([O-])c1ccc(/C=N/c2nnc(SCc3c[se]c(-c4ccccc4)n3)s2)cc1 | > 100 µM | 49.1 µM
8 | O=C(O)c1c[se]c(-c2ccccc2)n1 | 60.1 µM | 16.6 µM

More lines, now with the values ahead:

Row | IC50 (L1210) | IC50 (MCF7) | SMILES
9 | > 100 µM | 31.1 µM | Oc1ccc(/C=N/c2nnc(SCc3c[se]c(-c4ccccc4)n3)s2)cc1
10 | 62.2 µM | 8.51 µM | Oc1ccc(/C=N/c2nnc(SCc3c[se]c(-c4ccccc4)n3)s2)c(O)c1
11 | > 100 µM | 15 µM | COc1cc(/C=N/c2nnc(SCc3c[se]c(-c4ccccc4)n3)s2)ccc1O
12 | 58.6 µM | 7.55 µM | Cc1ccc(/C=N/c2nnc(SCc3c[se]c(-c4ccccc4)n3)s2)cc1
